From ChEMBL document CHEMBL1144160, “Discovery and optimization of (R)-prolinol-derived agonists of the Growth Hormone Secretagogue receptor (GHSR)” (Bioorg Med Chem Lett, 2008)

biological target: T1, Growth hormone secretagogue receptor type 1 (Homo sapiens, UniProt Q92847); experiment: Binding affinity to GHSR
T1 sequence (Q92847 whole entry): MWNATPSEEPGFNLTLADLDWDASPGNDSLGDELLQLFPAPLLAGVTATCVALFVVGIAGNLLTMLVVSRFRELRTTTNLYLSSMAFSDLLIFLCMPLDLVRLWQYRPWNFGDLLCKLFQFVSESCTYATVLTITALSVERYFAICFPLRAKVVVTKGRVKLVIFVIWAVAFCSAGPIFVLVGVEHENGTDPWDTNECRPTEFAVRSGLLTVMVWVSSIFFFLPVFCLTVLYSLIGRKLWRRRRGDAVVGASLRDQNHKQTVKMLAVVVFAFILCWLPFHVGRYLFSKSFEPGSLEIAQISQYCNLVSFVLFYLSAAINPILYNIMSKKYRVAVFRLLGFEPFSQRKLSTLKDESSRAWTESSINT

Row | SMILES | Ki [nM]
1 | C[C@H](Oc1cccc(Cl)c1)C(=O)N(Cc1ccccc1)C[C@H]1CCCN1 | 30
2 | C[C@@H](Oc1cccc(Cl)c1)C(=O)N(Cc1ccccc1)C[C@H]1CCCN1 | ≥ 10000
3 | CC(Oc1cccc(Cl)c1)C(=O)N(Cc1ccccc1)C[C@H]1CCCN1 (stereo partly specified) | 300
4 | CC(=O)Nc1ccc(N(C[C@H]2CCCN2)C(=O)C(C)Oc2cccc(Cl)c2)cc1 (stereo partly specified) | 260
5 | CC(=O)Nc1ccc(N(C[C@H]2CCCN2)C(=O)[C@@H](C)Oc2cccc(Cl)c2)cc1 | ≥ 10000
6 | Cc1ccccc1CN(C[C@H]1CCCN1)C(=O)[C@@H](C)Oc1cccc(Cl)c1 | 2200
7 | CC(=O)Nc1ccc(N(C[C@H]2CCCN2)C(=O)[C@H](C)Oc2cccc(Cl)c2)cc1 | 250
8 | Cc1ccccc1CN(C[C@H]1CCCN1)C(=O)[C@H](C)Oc1cccc(Cl)c1 | 30
9 | Cc1ccccc1CN(C[C@H]1CCCN1)C(=O)C(C)Oc1cccc(Cl)c1 (stereo partly specified) | 100

biological target: T1, Growth hormone secretagogue receptor type 1; experiment: Agonist activity at GHSR relative to full agonist; assay type: functional

Row | SMILES | Activity [%]
10 | C[C@H](Oc1cccc(Cl)c1)C(=O)N(Cc1ccccc1)C[C@H]1CCCN1 | 90
11 | CC(=O)Nc1cccc(N(C[C@H]2CCCN2)C(=O)C(C)Oc2cccc(Cl)c2)c1 (stereo partly specified) | 60
12 | CC(Oc1ccccc1)C(=O)N(C[C@H]1CCCN1)c1cccc(Cl)c1 (stereo partly specified) | 110
13 | Cc1cccc(CN(C[C@H]2CCCN2)C(=O)C(C)Oc2cccc(Cl)c2)c1 (stereo partly specified) | 20
14 | CC(=O)Nc1cccc(N(C[C@H]2CCCN2)C(=O)C(C)Oc2ccccc2)c1 (stereo partly specified) | 80
15 | CC(Oc1cccc(Cl)c1)C(=O)N(C[C@H]1CCCN1)c1ccccc1Cl (stereo partly specified) | 70
16 | C[C@@H](Oc1cccc(Cl)c1)C(=O)N(Cc1ccccc1)C[C@H]1CCCN1 | 100
17 | CC(Oc1cccc(Cl)c1)C(=O)N(C[C@H]1CCCN1)c1cccc(Cl)c1 (stereo partly specified) | 110
18 | CC(Oc1cccc(Cl)c1)C(=O)N(Cc1ccccc1)C[C@H]1CCCN1 (stereo partly specified) | 80
19 | CC(Oc1ccccc1)C(=O)N(C[C@H]1CCCN1)c1ccccc1Cl (stereo partly specified) | 80
20 | CC(Oc1ccccc1Cl)C(=O)N(Cc1ccc(Cl)cc1)C[C@H]1CCCN1 (stereo partly specified) | 80
21 | CC(Oc1ccccc1)C(=O)N(C[C@H]1CCCN1)c1ccc(Cl)cc1 (stereo partly specified) | 80
22 | Cc1ccccc1CN(C[C@H]1CCCN1)C(=O)C(C)Oc1ccccc1 (stereo partly specified) | 110
23 | CC(=O)Nc1ccc(N(C[C@H]2CCCN2)C(=O)C(C)Oc2cccc(Cl)c2)cc1 (stereo partly specified) | 90
24 | CC(Oc1cccc(Cl)c1)C(=O)N(C[C@H]1CCCN1)c1ccccc1 (stereo partly specified) | 60
25 | CC(=O)Nc1ccc(N(C[C@H]2CCCN2)C(=O)[C@@H](C)Oc2cccc(Cl)c2)cc1 | 100
26 | Cc1cccc(CN(C[C@H]2CCCN2)C(=O)C(C)Oc2ccccc2)c1 (stereo partly specified) | 90
27 | CC(Oc1ccccc1)C(=O)N(Cc1ccccc1Cl)C[C@H]1CCCN1 (stereo partly specified) | 100

Row | SMILES | Activity [%]
28 | CC(Oc1ccccc1)C(=O)N(Cc1ccc(Cl)cc1)C[C@H]1CCCN1 (stereo partly specified) | 80
29 | Cc1cccc(CN(C[C@H]2CCCN2)C(=O)C(C)Oc2ccccc2Cl)c1 (stereo partly specified) | 70
30 | Cc1ccccc1CN(C[C@H]1CCCN1)C(=O)[C@@H](C)Oc1cccc(Cl)c1 | 90
31 | CC(Oc1ccccc1Cl)C(=O)N(Cc1ccccc1)C[C@H]1CCCN1 (stereo partly specified) | 60
32 | CC(=O)Nc1ccc(N(C[C@H]2CCCN2)C(=O)C(C)Oc2ccccc2Cl)cc1 (stereo partly specified) | 90
33 | Cc1ccccc1CN(C[C@H]1CCCN1)C(=O)C(C)Oc1ccccc1Cl (stereo partly specified) | 90
34 | CC(=O)Nc1ccc(N(C[C@H]2CCCN2)C(=O)[C@H](C)Oc2cccc(Cl)c2)cc1 | 100
35 | CC(=O)Nc1cccc(N(C[C@H]2CCCN2)C(=O)C(C)Oc2ccccc2Cl)c1 (stereo partly specified) | 70
36 | CC(Oc1cccc(Cl)c1)C(=O)N(Cc1ccc(Cl)cc1)C[C@H]1CCCN1 (stereo partly specified) | 90
37 | CC(Oc1ccccc1Cl)C(=O)N(Cc1cccc(Cl)c1)C[C@H]1CCCN1 (stereo partly specified) | 90
38 | CC(Oc1ccccc1Cl)C(=O)N(C[C@H]1CCCN1)c1cccc(Cl)c1 (stereo partly specified) | 60
39 | Cc1ccccc1CN(C[C@H]1CCCN1)C(=O)[C@H](C)Oc1cccc(Cl)c1 | 90
40 | Cc1ccccc1CN(C[C@H]1CCCN1)C(=O)C(C)Oc1cccc(Cl)c1 (stereo partly specified) | 100
41 | CC(Oc1cccc(Cl)c1)C(=O)N(Cc1cccc(Cl)c1)C[C@H]1CCCN1 (stereo partly specified) | 70
42 | CC(Oc1ccccc1)C(=O)N(Cc1cccc(Cl)c1)C[C@H]1CCCN1 (stereo partly specified) | 80
43 | CC(Oc1cccc(Cl)c1)C(=O)N(Cc1ccccc1Cl)C[C@H]1CCCN1 (stereo partly specified) | 80
44 | CC(Oc1cccc(Cl)c1)C(=O)N(C[C@H]1CCCN1)c1ccc(Cl)cc1 (stereo partly specified) | 90
45 | CC(Oc1ccccc1Cl)C(=O)N(Cc1ccccc1Cl)C[C@H]1CCCN1 (stereo partly specified) | 60

biological target: T1, Growth hormone secretagogue receptor type 1; experiment: Agonist activity at GHSR; assay type: functional

Row | SMILES | EC50 [nM]
46 | C[C@H](Oc1cccc(Cl)c1)C(=O)N(Cc1ccccc1)C[C@H]1CCCN1 | 4
47 | CC(=O)Nc1cccc(N(C[C@H]2CCCN2)C(=O)C(C)Oc2cccc(Cl)c2)c1 (stereo partly specified) | 140
48 | CC(Oc1ccccc1)C(=O)N(C[C@H]1CCCN1)c1cccc(Cl)c1 (stereo partly specified) | 90
49 | Cc1cccc(CN(C[C@H]2CCCN2)C(=O)C(C)Oc2cccc(Cl)c2)c1 (stereo partly specified) | 120
50 | CC(Oc1ccccc1)C(=O)N(C[C@H]1CCCN1)c1ccc(CC#N)cc1 (stereo partly specified) | 9000
51 | CC(=O)Nc1cccc(N(C[C@H]2CCCN2)C(=O)C(C)Oc2ccccc2)c1 (stereo partly specified) | 1000
52 | O=C(COc1ccccc1)N(C[C@H]1CCCN1)c1ccccc1 | > 10000
53 | CC(Oc1cccc(Cl)c1)C(=O)N(C[C@H]1CCCN1)c1ccccc1Cl (stereo partly specified) | 780
54 | C[C@@H](Oc1cccc(Cl)c1)C(=O)N(Cc1ccccc1)C[C@H]1CCCN1 | 1500
55 | CC(Oc1cccc(Cl)c1)C(=O)N(C[C@H]1CCCN1)c1cccc(Cl)c1 (stereo partly specified) | 40
56 | CC(Oc1cccc(Cl)c1)C(=O)N(Cc1ccccc1)C[C@H]1CCCN1 (stereo partly specified) | 7
57 | CC(Oc1ccccc1)C(=O)N(C[C@H]1CCCN1)c1ccccc1Cl (stereo partly specified) | 1260
58 | CCC(Oc1ccccc1)C(=O)N(C[C@H]1CCCN1)c1cccc(OC)c1 (stereo partly specified) | > 10000
59 | CC(Oc1ccccc1Cl)C(=O)N(Cc1ccc(Cl)cc1)C[C@H]1CCCN1 (stereo partly specified) | 60
60 | CC(Oc1ccccc1)C(=O)N(C[C@H]1CCCN1)c1ccc(Cl)cc1 (stereo partly specified) | 600
61 | Cc1ccccc1CN(C[C@H]1CCCN1)C(=O)C(C)Oc1ccccc1 (stereo partly specified) | 40
62 | CC(=O)Nc1ccc(N(C[C@H]2CCCN2)C(=O)C(C)Oc2cccc(Cl)c2)cc1 (stereo partly specified) | 30
63 | CC(Oc1cccc(Cl)c1)C(=O)N(C[C@H]1CCCN1)c1ccccc1 (stereo partly specified) | 120
64 | CC(=O)Nc1ccc(N(C[C@H]2CCCN2)C(=O)[C@@H](C)Oc2cccc(Cl)c2)cc1 | 1200

Row | SMILES | EC50 [nM]
65 | CCC(Oc1ccccc1)C(=O)N(C[C@H]1CCCN1)c1ccc(NC(C)=O)cc1 (stereo partly specified) | 4000
66 | Cc1cccc(CN(C[C@H]2CCCN2)C(=O)C(C)Oc2ccccc2)c1 (stereo partly specified) | 80
67 | CC(=O)Nc1ccc(N(C[C@H]2CCCN2)C(=O)COc2ccccc2)cc1 | 2000
68 | CC(Oc1ccccc1)C(=O)N(Cc1ccccc1Cl)C[C@H]1CCCN1 (stereo partly specified) | 150
69 | CC(Oc1ccccc1)C(=O)N(Cc1ccc(Cl)cc1)C[C@H]1CCCN1 (stereo partly specified) | 220
70 | CC(Oc1ccccc1Cl)C(=O)N(C[C@H]1CCCN1)c1ccccc1 (stereo partly specified) | ≥ 10000
71 | Cc1cccc(CN(C[C@H]2CCCN2)C(=O)C(C)Oc2ccccc2Cl)c1 (stereo partly specified) | 90
72 | CC(Oc1ccccc1Cl)C(=O)N(C[C@H]1CCCN1)c1ccccc1Cl (stereo partly specified) | ≥ 10000
73 | Cc1ccccc1CN(C[C@H]1CCCN1)C(=O)[C@@H](C)Oc1cccc(Cl)c1 | 180
74 | CC(Oc1ccccc1Cl)C(=O)N(Cc1ccccc1)C[C@H]1CCCN1 (stereo partly specified) | 20
75 | COc1cccc(N(C[C@H]2CCCN2)C(=O)COc2ccccc2)c1 | > 10000
76 | CC(=O)Nc1ccc(N(C[C@H]2CCCN2)C(=O)C(C)Oc2ccccc2Cl)cc1 (stereo partly specified) | 50
77 | COc1cccc(N(C[C@H]2CCCN2)C(=O)C(C)Oc2ccccc2)c1 (stereo partly specified) | 4000
78 | CC(Oc1ccccc1Cl)C(=O)N(C[C@H]1CCCN1)c1ccc(Cl)cc1 (stereo partly specified) | ≥ 10000
79 | Cc1ccccc1CN(C[C@H]1CCCN1)C(=O)C(C)Oc1ccccc1Cl (stereo partly specified) | 140
80 | CC(=O)Nc1ccc(N(C[C@H]2CCCN2)C(=O)[C@H](C)Oc2cccc(Cl)c2)cc1 | 20
81 | CC(=O)Nc1cccc(N(C[C@H]2CCCN2)C(=O)C(C)Oc2ccccc2Cl)c1 (stereo partly specified) | 200
82 | COc1c(-c2ccccc2)cccc1N(C[C@H]1CCCN1)C(=O)COc1ccccc1 | 5000
83 | CCC(Oc1ccccc1)C(=O)N(C[C@H]1CCCN1)c1ccc(CC#N)cc1 (stereo partly specified) | 14000

Row | SMILES | EC50 [nM]
84 | CC(Oc1cccc(Cl)c1)C(=O)N(Cc1ccc(Cl)cc1)C[C@H]1CCCN1 (stereo partly specified) | 30
85 | CC(Oc1ccccc1Cl)C(=O)N(Cc1cccc(Cl)c1)C[C@H]1CCCN1 (stereo partly specified) | 10
86 | CC(Oc1ccccc1Cl)C(=O)N(C[C@H]1CCCN1)c1cccc(Cl)c1 (stereo partly specified) | 250
87 | Cc1ccccc1CN(C[C@H]1CCCN1)C(=O)[C@H](C)Oc1cccc(Cl)c1 | 2
88 | CCC(Oc1ccccc1)C(=O)N(C[C@H]1CCCN1)c1cccc(-c2ccccc2)c1OC (stereo partly specified) | 2000
89 | Cc1ccccc1CN(C[C@H]1CCCN1)C(=O)C(C)Oc1cccc(Cl)c1 (stereo partly specified) | 3
90 | CC(Oc1cccc(Cl)c1)C(=O)N(Cc1cccc(Cl)c1)C[C@H]1CCCN1 (stereo partly specified) | 20
91 | O=C(COc1ccccc1)N(Cc1ccccc1)C[C@H]1CCCN1 | > 10000
92 | CC(Oc1ccccc1)C(=O)N(Cc1cccc(Cl)c1)C[C@H]1CCCN1 (stereo partly specified) | 50
93 | CC(Oc1ccccc1)C(=O)N(Cc1ccccc1)C[C@H]1CCCN1 (stereo partly specified) | 90
94 | CC(Oc1cccc(Cl)c1)C(=O)N(Cc1ccccc1Cl)C[C@H]1CCCN1 (stereo partly specified) | 40
95 | CC(Oc1cccc(Cl)c1)C(=O)N(C[C@H]1CCCN1)c1ccc(Cl)cc1 (stereo partly specified) | 120
96 | CC(=O)Nc1ccc(N(C[C@H]2CCCN2)C(=O)C(C)Oc2ccccc2)cc1 (stereo partly specified) | 330
97 | CSc1cccc(N(C[C@H]2CCCN2)C(=O)C(C)Oc2ccccc2)c1 (stereo partly specified) | 2000
98 | CCC(Oc1ccccc1)C(=O)N(C[C@H]1CCCN1)c1cccc(SC)c1 (stereo partly specified) | > 10000
99 | CCC(Oc1ccccc1)C(=O)N(Cc1ccccc1)C[C@H]1CCCN1 (stereo partly specified) | 900
100 | CC(Oc1ccccc1)C(=O)N(C[C@H]1CCCN1)c1ccccc1 (stereo partly specified) | 440
101 | CC(Oc1ccccc1Cl)C(=O)N(Cc1ccccc1Cl)C[C@H]1CCCN1 (stereo partly specified) | 260
